{
  "source": "patent US20250288704A1",
  "about": "“CXCR4-LIGANDS FOR DIAGNOSTIC AND THERAPEUTIC USE AND PRECURSORS THEREOF” (priority 2021, published 2025)",
  "key": {"[1]": {"tested_on": "CXCR4-expressing Chem_1 cells", "test": "Determination of internalization, dual tracer with 125I-Fc-131", "format": "cell-based", "conditions": "for Cell-bound [%] / Internalized [%]: of total cellular activity", "protocol": "CXCR4-expressing Chem_1 cells were grown in DMEM-F12 medium supplemented with 10 vol % FBS, 1 vol % NEA, 1 vol % PenStrep and 1 vol % HEPES (1.00 M). Cells were maintained in a 5% CO2 atmosphere at 37° C.\nFor in vitro experiments, cells were harvested by removal of the medium and incubation of the cells with trypsine/EDTA (0.05%/0.02%; w/v) for 30 in at 37° C.\nEach well (n=3 for every time point) was either treated with 25 μL DMEM-F12 (+5 wt % BSA) or 25 μL of an AMD3100 stock (1 mM in H2O) for blockage of the receptors.\nThe experiment was stopped by placing the well-plate on ice and removing the supernatant. The cells were washed with 250 μL cold HBSS and the both fractions for each well combined, comprising the amount of unbound radioligand.\nThe supernatant was removed, the cells washed with cold HBSS and the respective fractions combined to obtain the amount of surface-bound radioligand.\nThe cells were then incubated with 300 μL NaOH (1.00 M in H2O) for at least 30 at r.t. before the supernatant was removed. The well was washed with another 300 μL NaOH and the fractions combined that contain the amount of internalized radioligand.\nThe three different fractions were subjected to activity measurement in the γ-counter, measuring the activity of the radionuclide used for the labeling of the peptide under investigation first. […] Data was corrected for non-specific internalization and referred to the specific internalization of the standard ligand"}, "[2]": {"test": "Octanol/PBS partition coefficient (logD7.4)", "format": "physicochemical", "conditions": "n-octanol/PBS pH 7.4, radiolabeled compound", "protocol": "The tubes were vortexed at maximum speed for 3 min to ensure equilibrium before centrifugation at 15.000×g for 5 min on a Biofuge 15 from Heraeus Holding GmbH (Osterode, Germany). An aliquot of 100 μL of each fraction was measured in the γ-counter and the log D7.4 calculated as follows: […]"}},
  "note": "Starred links: 1 amine or outer side, 2 acyl side, 3 side chain; linkers in the order of their positions; H or OH if unused. Positions of bridges follow the written chain, without caps; N, C: chain ends. Non-standard residues stand in square brackets, D forms with d. Residues, ends and D or L forms follow the SMILES beside them. Groups on a side chain read outwards from the residue. Chains are numbered I, II in the order given. *: point of attachment. X7 = O=C(O)CN1CCN(CC(=O)O)CCN([C@H](CCC(=O)*)C(=O)O)CCN(CC(=O)O)CC1; Benzoyl(4-SiFtBu2) = CC(C)(C)[Si](F)(c1ccc(C(=O)*)cc1)C(C)(C)C; DOTA = O=C(O)CN1CCN(CC(=O)O)CCN(CC(=O)*)CCN(CC(=O)O)CC1; d(γGlu) = O=C(O)[C@@H](CCC(=O)[*:2])N[*:1]; dTyr(3-I) = N[C@H](Cc1ccc(O)c(I)c1)C(=O)O; 2Nal = N[C@@H](Cc1ccc2ccccc2c1)C(=O)O; dNMeOrn = CN[C@H](CCCN)C(=O)O; 4Abz = Nc1ccc(C(=O)O)cc1; dDap = NC[C@@H](N)C(=O)O; CO = O=C([*:1])[*:2]",
  "data": [
    {"smiles": "C[C@@H](NC(=O)[C@@H](CCCNC(=N)N)NC(=O)[C@@H](CN)NC(=O)CN1CCN(CC(=O)O)CCN(CC(=O)O)CCN(CC(=O)O)CC1)C(=O)Nc1ccc(C(=O)NCCC[C@@H]2C(=O)N[C@@H](CCCNC(=N)N)C(=O)N[C@@H](Cc3ccc4ccccc4c3)C(=O)NCC(=O)N[C@H](Cc3ccc(O)cc3)C(=O)N2C)cc1", "note": "[CXCR4-DOTA-3 [Lu]] (cyclo([dY][dNMeOrn]([4Abz-dA-dR-dDap-DOTA])R[2Nal]G))", "values": [
      {"measurement": "Internalized in relation to 125I-Fc-131 [%]", "setting": "[1]; 15 min", "value": "180 ± 32.6", "unit": "%"},
      {"measurement": "Cell-bound [%]", "setting": "[1]; 15 min", "value": "6.46 ± 1.07", "unit": "%"},
      {"measurement": "Internalized [%]", "setting": "[1]; 15 min", "value": "15.2 ± 0.99", "unit": "%"},
      {"measurement": "Internalized in relation to 125I-Fc-131 [%]", "setting": "[1]; 30 min", "value": "259 ± 23.0", "unit": "%"},
      {"measurement": "Cell-bound [%]", "setting": "[1]; 30 min", "value": "9.88 ± 0.54", "unit": "%"},
      {"measurement": "Internalized [%]", "setting": "[1]; 30 min", "value": "22.2 ± 0.78", "unit": "%"},
      {"measurement": "Internalized in relation to 125I-Fc-131 [%]", "setting": "[1]; 60 min", "value": "289 ± 22.4", "unit": "%"},
      {"measurement": "Cell-bound [%]", "setting": "[1]; 60 min", "value": "13.4 ± 0.84", "unit": "%"},
      {"measurement": "Internalized [%]", "setting": "[1]; 60 min", "value": "33.4 ± 0.87", "unit": "%"},
      {"measurement": "Internalized in relation to 125I-Fc-131 [%]", "setting": "[1]; 120 min", "value": "366 ± 69.5", "unit": "%"},
      {"measurement": "Internalization [% Fc-131] 2 h", "setting": "[1]; 2 h, 177Lu-labeled", "value": 366, "unit": "% Fc-131"},
      {"measurement": "Cell-bound [%]", "setting": "[1]; 120 min", "value": "17.1 ± 2.69", "unit": "%"},
      {"measurement": "Internalized [%]", "setting": "[1]; 120 min", "value": "38.4 ± 1.78", "unit": "%"},
      {"measurement": "logD7.4", "setting": "[2]", "value": "−3.35 ± 0.19 (6)"}
    ]},
    {"smiles": "C[C@@H](NC(=O)[C@@H](CCCNC(=N)N)NC(=O)[C@@H](CN)NC(=O)[C@@H](CNC(=O)CC[C@H](C(=O)O)N1CCN(CC(=O)O)CCN(CC(=O)O)CCN(CC(=O)O)CC1)NC(=O)[C@@H](CNC(=O)c1ccc([Si](F)(C(C)(C)C)C(C)(C)C)cc1)NC(=O)CC[C@@H](NC(=O)N[C@H](CCC(=O)O)C(=O)O)C(=O)O)C(=O)Nc1ccc(C(=O)NCCC[C@@H]2C(=O)N[C@@H](CCCNC(=N)N)C(=O)N[C@@H](Cc3ccc4ccccc4c3)C(=O)NCC(=O)N[C@H](Cc3ccc(O)cc3)C(=O)N2C)cc1", "note": "[CXCR4-SiFA-4 [Ga]] (I: {dE-CO-d(γGlu)}-[dDap](Benzoyl(4-SiFtBu2))[dDap](X7)[dDap][dR][dA][4Abz] / II: cyclo([dY][dNMeOrn]R[2Nal]G); amide I:C-II:2)", "values": [
      {"measurement": "Internalized in relation to 125I-Fc-131 [%]", "setting": "[1]; 30 min", "value": "56.6 ± 8.36", "unit": "%"},
      {"measurement": "Cell-bound [%]", "setting": "[1]; 30 min", "value": "0.10 ± 0.15", "unit": "%"},
      {"measurement": "Internalized [%]", "setting": "[1]; 30 min", "value": "1.36 ± 0.18", "unit": "%"},
      {"measurement": "Internalization [% Fc-131]", "setting": "[1]; 90 min", "value": 58, "unit": "% Fc-131"},
      {"measurement": "Internalized in relation to 125I-Fc-131 [%]", "setting": "[1]; 90 min", "value": "57.7 ± 5.43", "unit": "%"},
      {"measurement": "Cell-bound [%]", "setting": "[1]; 90 min", "value": "0.37 ± 0.20", "unit": "%"},
      {"measurement": "Internalized [%]", "setting": "[1]; 90 min", "value": "1.80 ± 0.15", "unit": "%"},
      {"measurement": "logD7.4", "setting": "[2]", "value": "−1.92 ± 0.06 (8)"}
    ]},
    {"smiles": "C[C@@H](NC(=O)[C@@H](CCCNC(=N)N)NC(=O)[C@@H](CN)NC(=O)CN1CCN(CC(=O)O)CCN(CC(=O)O)CCN(CC(=O)O)CC1)C(=O)Nc1ccc(C(=O)NCCC[C@@H]2C(=O)N[C@@H](CCCNC(=N)N)C(=O)N[C@@H](Cc3ccc4ccccc4c3)C(=O)NCC(=O)N[C@H](Cc3ccc(O)cc3)C(=O)N2C)cc1", "note": "[CXCR4-DOTA-3 [Ga]] (cyclo([dY][dNMeOrn]([4Abz-dA-dR-dDap-DOTA])R[2Nal]G))", "values": [
      {"measurement": "logD7.4", "setting": "[2]", "value": "−3.35 ± 0.08 (5)"}
    ]},
    {"smiles": "C[C@@H](NC(=O)[C@@H](CCCNC(=N)N)NC(=O)[C@@H](CN)NC(=O)CN1CCN(CC(=O)O)CCN(CC(=O)O)CCN(CC(=O)O)CC1)C(=O)Nc1ccc(C(=O)NCCC[C@@H]2C(=O)N[C@@H](CCCNC(=N)N)C(=O)N[C@@H](Cc3ccc4ccccc4c3)C(=O)NCC(=O)N[C@H](Cc3ccc(O)c(I)c3)C(=O)N2C)cc1", "note": "[CXCR4-DOTA-4 [Ga]] (cyclo([dTyr(3-I)][dNMeOrn]([4Abz-dA-dR-dDap-DOTA])R[2Nal]G))", "values": [
      {"measurement": "logD7.4", "setting": "[2]", "value": "−2.65 ± 0.22 (6)"}
    ]},
    {"smiles": "C[C@@H](NC(=O)[C@@H](CCCNC(=N)N)NC(=O)[C@@H](CNC(=O)c1ccc([Si](F)(C(C)(C)C)C(C)(C)C)cc1)NC(=O)CC[C@H](C(=O)O)N1CCN(CC(=O)O)CCN(CC(=O)O)CCN(CC(=O)O)CC1)C(=O)Nc1ccc(C(=O)NCCC[C@@H]2C(=O)N[C@@H](CCCNC(=N)N)C(=O)N[C@@H](Cc3ccc4ccccc4c3)C(=O)NCC(=O)N[C@H](Cc3ccc(O)cc3)C(=O)N2C)cc1", "note": "[CXCR4-SiFA-1 [Lu]]", "values": [
      {"measurement": "logD7.4", "setting": "[2]", "value": "1.41 ± 0.04 (8)"}
    ]}
  ]
}
